Results taken from ChEMBL document CHEMBL1201862, “PubChem BioAssay data set” (2004).
Activity calls are given as the source filed them.

Experiments:
[1] = target: Sphingosine 1-phosphate receptor 1 (Homo sapiens, UniProt P21453); assay: Fluorescence-based counterscreen assay for S1P4 agonists: Cell-based dose response high throughput screening assay to identify agonists of the Sphingosine 1-Phosphate Receptor 1 (S1P1). [Related pubchem assays (depositor defined):AID1509, AID1523, AID1801, AID463107, AID463118, AID463119, AID463122, AID463123, AID463129, AID463225, AID504400, AID504460]; format: functional
[2] = target: T1, Sphingosine 1-phosphate receptor 4 (Homo sapiens, UniProt O95977); assay: Fluorescence dose response cell-based high throughput screening assay for agonists of the Sphingosine 1-Phosphate Receptor 4 (S1P4). [Related pubchem assays: 1509 (Primary screen.), 1523 (Confirmation screen in triplicates.)]; format: functional
T1 sequence (O95977 whole entry): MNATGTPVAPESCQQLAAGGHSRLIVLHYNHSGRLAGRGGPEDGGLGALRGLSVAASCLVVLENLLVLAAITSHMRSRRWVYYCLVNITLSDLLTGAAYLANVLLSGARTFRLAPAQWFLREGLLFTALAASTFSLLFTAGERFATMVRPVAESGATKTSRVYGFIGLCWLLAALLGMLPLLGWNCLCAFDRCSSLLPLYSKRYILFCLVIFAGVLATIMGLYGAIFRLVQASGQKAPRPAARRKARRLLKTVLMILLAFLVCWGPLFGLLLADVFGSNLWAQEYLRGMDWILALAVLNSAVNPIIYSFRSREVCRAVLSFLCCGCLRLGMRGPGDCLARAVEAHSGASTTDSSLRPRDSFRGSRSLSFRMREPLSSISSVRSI

[3] = HEK-293T viability loss after treatment – luminescence, T-cell screen hits, cytotoxicity control for TCR NF-kB inhibitor project, dose response (AID 489026); format: functional, cell-based;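 also: cells exposed to compound about 14 hours before the viability readout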
Protein Wnt-3a = Protein Wnt-3a (Mus musculus, UniProt P27467); assay: antagonism of Wnt3a pathway luciferase reporter – Wnt-LIGHT cells, luminescence, selectivity assay for Gli-SUFU antagonist project, dose response (AID 651570); format: functional; conditions: read-out: IC50_Mean;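 also: Wnt-LIGHT reporter cells stimulated with conditioned medium from Wnt3a-producing cells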
[4] = viability of HCT116 lacking mutant beta-catenin – cell-based, human colon tumor, dose response (AID 1045); format: functional;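 also: HCT116 colon tumor cells with beta catenin knocked out; cells exposed to compound for 60 hours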
[5] = viability of PTEN-deleted HCT116 cells – cell-based, HCT116 PTEN knockout, dose response (AID 1047); format: functional;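 also: HCT116 colon tumor cells with PTEN knocked out; cells exposed to compound for 60 hours before readout; potency for loss of cell viability measured by luminescence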
[6] = target: T2, Tyrosine-protein phosphatase non-receptor type 7 (Homo sapiens, UniProt P35236); assay: inhibition of hematopoietic tyrosine phosphatase HePTP – biochemical, set 2, SAR follow-up (AID 449736); format: functional
T2 sequence (P35236 whole entry): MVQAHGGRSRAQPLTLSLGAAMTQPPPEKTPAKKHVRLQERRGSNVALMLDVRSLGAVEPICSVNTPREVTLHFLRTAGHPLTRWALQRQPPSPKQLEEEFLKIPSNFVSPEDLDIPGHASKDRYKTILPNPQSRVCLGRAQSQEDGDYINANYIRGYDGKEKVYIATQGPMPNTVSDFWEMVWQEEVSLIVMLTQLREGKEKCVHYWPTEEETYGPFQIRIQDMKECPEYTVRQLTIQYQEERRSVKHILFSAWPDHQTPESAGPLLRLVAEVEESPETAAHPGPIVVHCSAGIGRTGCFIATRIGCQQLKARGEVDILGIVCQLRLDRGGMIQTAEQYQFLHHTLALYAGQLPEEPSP

[7] = target: T3, Tyrosine-protein phosphatase non-receptor type 22 (Homo sapiens, UniProt Q9Y2R2); assay: SAR LYP1 Fluorescent Assay using OMFP substrate for In Vitro dose response studies - Set 3. [Related pubchem assays (depositor defined):AID1779, AID1784, AID2140, AID2686]; format: functional
T3 sequence (Q9Y2R2 whole entry): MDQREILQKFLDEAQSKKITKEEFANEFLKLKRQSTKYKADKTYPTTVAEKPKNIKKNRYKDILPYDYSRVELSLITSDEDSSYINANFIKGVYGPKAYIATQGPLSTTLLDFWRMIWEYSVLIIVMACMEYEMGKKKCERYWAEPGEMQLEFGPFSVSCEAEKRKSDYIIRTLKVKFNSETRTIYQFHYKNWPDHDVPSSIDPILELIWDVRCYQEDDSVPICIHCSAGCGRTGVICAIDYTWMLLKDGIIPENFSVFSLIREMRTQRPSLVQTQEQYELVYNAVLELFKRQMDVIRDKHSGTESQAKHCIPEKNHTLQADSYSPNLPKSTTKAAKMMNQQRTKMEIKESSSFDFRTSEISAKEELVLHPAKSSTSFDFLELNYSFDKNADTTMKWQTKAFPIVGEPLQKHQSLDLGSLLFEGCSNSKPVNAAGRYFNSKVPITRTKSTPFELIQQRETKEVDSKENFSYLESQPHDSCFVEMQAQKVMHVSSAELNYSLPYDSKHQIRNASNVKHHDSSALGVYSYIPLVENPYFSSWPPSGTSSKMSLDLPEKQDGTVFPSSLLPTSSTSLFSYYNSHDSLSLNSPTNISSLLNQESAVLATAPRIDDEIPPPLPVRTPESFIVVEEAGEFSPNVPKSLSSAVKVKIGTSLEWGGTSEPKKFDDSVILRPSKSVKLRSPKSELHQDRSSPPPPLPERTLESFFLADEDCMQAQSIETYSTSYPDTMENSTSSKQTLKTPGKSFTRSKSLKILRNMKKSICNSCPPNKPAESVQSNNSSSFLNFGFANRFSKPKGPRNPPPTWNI

[8] = target: T4, Dual specificity protein phosphatase 6 (Rattus norvegicus, UniProt Q64346); format: functional;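 also: confirmatory in vitro dose-response testing of MKP-3 inhibition; recombinant His-tagged MKP-3 made in E. coli BL21 with OMFP substrate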
T4 sequence (Q64346 whole entry): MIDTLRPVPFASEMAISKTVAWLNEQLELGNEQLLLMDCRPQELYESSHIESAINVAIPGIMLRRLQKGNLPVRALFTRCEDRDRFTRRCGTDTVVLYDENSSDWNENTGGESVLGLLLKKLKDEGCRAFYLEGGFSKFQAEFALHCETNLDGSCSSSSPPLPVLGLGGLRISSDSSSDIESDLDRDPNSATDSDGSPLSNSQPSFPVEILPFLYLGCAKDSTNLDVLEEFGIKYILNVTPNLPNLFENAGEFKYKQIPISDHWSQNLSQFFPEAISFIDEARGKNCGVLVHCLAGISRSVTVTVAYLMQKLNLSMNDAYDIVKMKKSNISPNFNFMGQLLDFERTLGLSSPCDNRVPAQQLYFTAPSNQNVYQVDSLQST

[9] = target: T2, Tyrosine-protein phosphatase non-receptor type 7; assay: redox-active compounds inhibiting HePTP phosphatase – biochemical, fluorescence, mechanism study (AID 2068); format: functional
[10] = target: Dual specificity protein phosphatase 3 (Homo sapiens, UniProt P51452); assay: SAR VHR1 Fluorescent Assay for In Vitro dose response studies Set 2. [Related pubchem assays (depositor defined):AID1654, AID1661, AID1878]; format: functional
[11] = target: Tyrosine-protein phosphatase non-receptor type 12 (Homo sapiens, UniProt Q05209); assay: SAR Selectivity Analysis of small molecule inhibitors of PEST using pCAP in a fluorescence assay. [Related pubchem assays (depositor defined):AID1779, AID1784, AID2135]; format: functional
[12] = target: T3, Tyrosine-protein phosphatase non-receptor type 22; assay: inhibition of lymphoid tyrosine phosphatase LYP – biochemical, pCAP fluorogenic substrate, fluorescence, set 3, SAR follow-up (AID 449727); format: functional
[13] = target: T5, G-protein coupled receptor 35 (Homo sapiens, UniProt Q9HC97); assay: SAR analysis of Antagonists of the GPR35 Receptor using an Image-Based Assay - Set 6. [Related pubchem assays (depositor defined):AID2013, AID2026]; format: functional
Cannabinoid receptor 2 [14] = target: T6, Cannabinoid receptor 2 (Homo sapiens, UniProt P34972); assay: SAR analysis of antagonists of the Cannabinoid Receptor 2 using an Image-Based Assay - Set 3. [Related pubchem assays (depositor defined):AID2013, AID2026]; format: functional
[15] = target: G-protein coupled receptor 55 (Homo sapiens, UniProt Q9Y2T6); assay: SAR Analysis of Selective Antagonists of GPR55 using an Image-Based Assay - Set 4. [Related pubchem assays (depositor defined):AID2013, AID2026]; format: functional;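 also: antagonism of response to 5 µM lysophosphatidylinositol agonist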
[16] = target: T5, G-protein coupled receptor 35; assay: SAR analysis of Agonists of the GPR35 Receptor using an Image-Based Assay - Set 4. [Related pubchem assays (depositor defined):AID2013, AID2026]; format: functional
Cannabinoid receptor 1 [17] = target: T7, Cannabinoid receptor 1 (Homo sapiens, UniProt P21554); assay: SAR analysis of antagonists of the Cannabinoid Receptor 1 using an Image-Based Assay - Set 4. [Related pubchem assays (depositor defined):AID2013, AID2026]; format: functional
Cannabinoid receptor 2 [18] = target: T6, Cannabinoid receptor 2; assay: SAR analysis of agonists of the Cannabinoid Receptor 2 using an Image-Based Assay - Set 3. [Related pubchem assays (depositor defined):AID2013, AID2026]; format: functional
Cannabinoid receptor 1 [19] = target: T7, Cannabinoid receptor 1; assay: SAR analysis of agonists of the Cannabinoid Receptor 1 using an Image-Based Assay - Set 4. [Related pubchem assays (depositor defined):AID2013, AID2026]; format: functional

T7 sequence (P21554 whole entry): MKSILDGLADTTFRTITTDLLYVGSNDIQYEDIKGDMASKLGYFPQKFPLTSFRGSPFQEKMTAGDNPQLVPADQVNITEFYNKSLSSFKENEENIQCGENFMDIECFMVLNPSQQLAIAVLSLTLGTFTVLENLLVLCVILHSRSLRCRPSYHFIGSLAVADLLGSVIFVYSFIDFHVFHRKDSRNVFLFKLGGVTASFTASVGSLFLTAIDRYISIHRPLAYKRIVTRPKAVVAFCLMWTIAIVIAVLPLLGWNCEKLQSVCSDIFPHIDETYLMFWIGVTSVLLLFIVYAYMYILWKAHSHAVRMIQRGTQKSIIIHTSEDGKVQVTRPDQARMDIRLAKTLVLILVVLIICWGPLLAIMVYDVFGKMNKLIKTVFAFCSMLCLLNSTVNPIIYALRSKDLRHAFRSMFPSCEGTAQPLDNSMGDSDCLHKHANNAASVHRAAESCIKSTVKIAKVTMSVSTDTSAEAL
T5 sequence (Q9HC97 whole entry): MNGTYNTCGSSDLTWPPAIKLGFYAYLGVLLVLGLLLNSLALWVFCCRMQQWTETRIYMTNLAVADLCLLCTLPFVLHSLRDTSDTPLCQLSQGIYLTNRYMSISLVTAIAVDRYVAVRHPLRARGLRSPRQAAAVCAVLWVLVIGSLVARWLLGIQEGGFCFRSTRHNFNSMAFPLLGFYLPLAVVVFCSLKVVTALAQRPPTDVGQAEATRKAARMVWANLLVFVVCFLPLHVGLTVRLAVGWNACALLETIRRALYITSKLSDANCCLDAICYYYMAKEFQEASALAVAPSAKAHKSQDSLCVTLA
T6 sequence (P34972 whole entry): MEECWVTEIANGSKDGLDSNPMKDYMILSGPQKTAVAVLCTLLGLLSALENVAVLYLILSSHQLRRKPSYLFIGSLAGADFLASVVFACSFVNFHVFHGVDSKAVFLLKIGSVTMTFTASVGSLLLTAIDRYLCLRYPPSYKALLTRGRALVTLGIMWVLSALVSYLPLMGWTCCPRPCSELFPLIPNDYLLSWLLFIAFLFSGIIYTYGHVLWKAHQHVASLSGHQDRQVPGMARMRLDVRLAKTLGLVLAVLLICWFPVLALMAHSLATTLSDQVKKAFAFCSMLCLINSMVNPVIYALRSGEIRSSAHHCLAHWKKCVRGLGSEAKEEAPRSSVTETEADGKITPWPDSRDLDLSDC
Sphingosine 1-phosphate receptor 1, sequence (P21453 whole entry): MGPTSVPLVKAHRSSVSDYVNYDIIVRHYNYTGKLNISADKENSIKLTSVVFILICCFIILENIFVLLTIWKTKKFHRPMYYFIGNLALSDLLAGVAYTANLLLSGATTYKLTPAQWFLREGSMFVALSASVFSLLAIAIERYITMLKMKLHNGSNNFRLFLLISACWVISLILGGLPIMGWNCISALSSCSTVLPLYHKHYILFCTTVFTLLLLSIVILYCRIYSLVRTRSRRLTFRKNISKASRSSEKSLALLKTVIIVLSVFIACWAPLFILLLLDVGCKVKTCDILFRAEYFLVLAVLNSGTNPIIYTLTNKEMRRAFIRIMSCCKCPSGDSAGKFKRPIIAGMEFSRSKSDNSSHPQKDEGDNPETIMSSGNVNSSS
Dual specificity protein phosphatase 3, sequence (P51452 whole entry): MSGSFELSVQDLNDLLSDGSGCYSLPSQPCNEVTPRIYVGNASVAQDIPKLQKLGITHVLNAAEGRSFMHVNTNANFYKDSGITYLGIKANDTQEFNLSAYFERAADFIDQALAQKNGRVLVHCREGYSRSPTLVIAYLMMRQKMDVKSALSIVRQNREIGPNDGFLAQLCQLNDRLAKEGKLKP
G-protein coupled receptor 55, sequence (Q9Y2T6 whole entry): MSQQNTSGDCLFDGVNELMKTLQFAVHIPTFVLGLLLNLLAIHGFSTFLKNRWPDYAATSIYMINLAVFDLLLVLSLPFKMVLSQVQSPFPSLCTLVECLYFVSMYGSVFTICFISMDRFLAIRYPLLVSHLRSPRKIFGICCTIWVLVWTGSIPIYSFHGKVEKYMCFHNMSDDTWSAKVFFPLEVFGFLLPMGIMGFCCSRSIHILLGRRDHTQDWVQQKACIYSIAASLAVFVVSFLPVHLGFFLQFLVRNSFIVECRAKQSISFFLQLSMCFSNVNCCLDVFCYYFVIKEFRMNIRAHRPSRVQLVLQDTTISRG
Tyrosine-protein phosphatase non-receptor type 12, sequence (Q05209 whole entry): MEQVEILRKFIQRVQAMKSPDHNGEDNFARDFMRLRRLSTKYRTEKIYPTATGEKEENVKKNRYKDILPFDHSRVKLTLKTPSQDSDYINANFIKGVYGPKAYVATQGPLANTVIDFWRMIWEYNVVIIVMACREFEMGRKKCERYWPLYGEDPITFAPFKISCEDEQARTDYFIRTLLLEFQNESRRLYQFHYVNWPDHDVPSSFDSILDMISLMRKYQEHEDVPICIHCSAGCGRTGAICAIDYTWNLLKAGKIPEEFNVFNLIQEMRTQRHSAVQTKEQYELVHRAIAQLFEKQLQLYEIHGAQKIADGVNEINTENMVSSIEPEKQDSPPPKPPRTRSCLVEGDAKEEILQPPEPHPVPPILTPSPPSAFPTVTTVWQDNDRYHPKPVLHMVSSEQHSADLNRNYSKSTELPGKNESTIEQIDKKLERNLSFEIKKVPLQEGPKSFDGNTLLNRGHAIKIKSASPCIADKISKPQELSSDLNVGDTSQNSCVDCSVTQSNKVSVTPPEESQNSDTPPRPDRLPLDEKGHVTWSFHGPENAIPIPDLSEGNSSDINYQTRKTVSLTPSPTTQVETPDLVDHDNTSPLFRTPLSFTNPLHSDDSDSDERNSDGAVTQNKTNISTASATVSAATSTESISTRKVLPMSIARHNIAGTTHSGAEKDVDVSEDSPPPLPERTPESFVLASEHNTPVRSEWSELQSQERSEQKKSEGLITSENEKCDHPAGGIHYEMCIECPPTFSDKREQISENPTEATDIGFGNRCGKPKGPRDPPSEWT
Protein Wnt-3a, sequence (P27467 whole entry): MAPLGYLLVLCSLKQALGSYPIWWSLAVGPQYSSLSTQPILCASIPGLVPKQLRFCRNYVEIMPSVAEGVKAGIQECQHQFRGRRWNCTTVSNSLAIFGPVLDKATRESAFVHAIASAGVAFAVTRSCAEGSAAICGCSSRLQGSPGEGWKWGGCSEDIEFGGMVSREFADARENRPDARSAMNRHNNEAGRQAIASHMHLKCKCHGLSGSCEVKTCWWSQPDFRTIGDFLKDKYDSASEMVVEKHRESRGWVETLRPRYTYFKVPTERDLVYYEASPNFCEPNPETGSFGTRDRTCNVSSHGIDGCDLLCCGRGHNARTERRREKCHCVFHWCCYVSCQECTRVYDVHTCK

Structure (SMILES): COc1ccc(-c2c(C#N)c(N)nc3c2CCc2ccccc2-3)cc1OC
- EC50 [1]: > 49.8 µM (inactive)
- EC50 [2]: 43.6 µM (not active)
- IC50 [3]: 38.1 µM (inactive)
- IC50 (Protein Wnt-3a): 17.9 µM (active)
- EC50 [4]: 5.59 µM (active)
- EC50 [5]: 5.19 µM (active)

Structure (SMILES): COc1cc(/C=C2/S/C(=N\c3cccc(Br)c3)NC2=O)ccc1OCC(=O)O
- IC50 [6]: 1.57 µM (active)
- IC50 [7]: 68.8 µM (active)
- IC50 [8]: > 100 µM (inactive)
- IC50 [9]: 7.44 µM (active)
- IC50 [10]: > 100 µM (inactive)
- IC50 [11]: 7.86 µM (active)
- IC50 [12]: 32 µM (active)

Structure (SMILES): CCOc1ccc(CC(=O)N2CCC(n3nc(-c4ccccc4)oc3=O)CC2)cc1
- IC50 [13]: > 32 µM (inactive)
- IC50 (Cannabinoid receptor 2 [14]): > 32 µM (inactive)
- IC50 [15]: > 32 µM (inactive)
- EC50 [16]: > 32 µM (inactive)
- IC50 (Cannabinoid receptor 1 [17]): 7.68 µM (active)
- EC50 (Cannabinoid receptor 2 [18]): > 32 µM (inactive)
- EC50 (Cannabinoid receptor 1 [19]): > 32 µM (inactive)
